In patent publication US20170065730A1, “COMPOSITION FOR IMAGING ATHEROSCLEROSIS AND METHOD FOR DIAGNOSING ATHEROSCLEROSIS BY USING SAME” (priority 2014, published 2017):

Tested on: atherosclerotic site of the aorta
Assay: Fluorescence imaging of aorta sections after ear vein injection of RITC-MSA or RITC
Assay type: in vivo
Conditions: cholesterol diet rabbit, 10 minutes after ear vein injection
Method: Ten 12-week-old normal rabbits (New Zealand White rabbits) were used for experiment. They were randomly divided into two groups of 5 rabbits. One group was given a normal diet and the other group was given a diet containing 1% cholesterol. The animals were kept under a standardized condition (21° C., 41-62% humidity) with regular light/dark (10/14 hr) cycles and were given free access to water and feed. 3 months later, after intravenously injecting 1 mCi of ^68Ga-MSA under anesthesia, positron emission tomography was performed on the whole body for 10 minutes from 10 minutes after the injection (FIGS. 5 and 6). On the next day, the rabbits were anesthetized and RITC-MSA (42 μg/0.1 mL) or RITC mixed in 0.9% physiological saline was injected into the ear vein of the rabbits. 10 minutes later, the rabbits were euthanized and the aorta was cut and kept at −20° C. The aorta sections were fixed at room temperature for 30 minutes in a 4% (v/v) buffered formalin solution, washed with cold PBS (pH 7.4), embedded in optimum cutting temperature compound (OCT, Sakura, Tokyo) and kept at −80° C. after a day for tissue penetration. Tissue slices cut to a thickness of […] were mounted on slides together with poly-D-lysine and then kept at room temperature until use after drying at 45° C. in the shade. […]

With rhodamine B isothiocyanate [RITC] the “fluorescence / binding at the atherosclerotic site of the aorta” value was “cannot be observed”.
